Results: ChEMBL document CHEMBL1201862, “PubChem BioAssay data set” (2004)
The source made the active and inactive calls.

Columns and labels:
[1] = HEK293T cytotoxicity, dose response, cytotoxicity control for miR-122 modulator project, cell-based, inhibitor set, cherry-pick, set 2 (AID 720697); format: functional
[2] = molecular target: T1, Short transient receptor potential channel 4 (Mus musculus, UniProt Q9QUQ5); experiment: mouse TRPC4 channel activators, dose response, cell-based, HEK293 TRPC4/mu-opioid, Fluo-4 calcium (AID 434937); format: functional
T1 sequence (Q9QUQ5 whole entry): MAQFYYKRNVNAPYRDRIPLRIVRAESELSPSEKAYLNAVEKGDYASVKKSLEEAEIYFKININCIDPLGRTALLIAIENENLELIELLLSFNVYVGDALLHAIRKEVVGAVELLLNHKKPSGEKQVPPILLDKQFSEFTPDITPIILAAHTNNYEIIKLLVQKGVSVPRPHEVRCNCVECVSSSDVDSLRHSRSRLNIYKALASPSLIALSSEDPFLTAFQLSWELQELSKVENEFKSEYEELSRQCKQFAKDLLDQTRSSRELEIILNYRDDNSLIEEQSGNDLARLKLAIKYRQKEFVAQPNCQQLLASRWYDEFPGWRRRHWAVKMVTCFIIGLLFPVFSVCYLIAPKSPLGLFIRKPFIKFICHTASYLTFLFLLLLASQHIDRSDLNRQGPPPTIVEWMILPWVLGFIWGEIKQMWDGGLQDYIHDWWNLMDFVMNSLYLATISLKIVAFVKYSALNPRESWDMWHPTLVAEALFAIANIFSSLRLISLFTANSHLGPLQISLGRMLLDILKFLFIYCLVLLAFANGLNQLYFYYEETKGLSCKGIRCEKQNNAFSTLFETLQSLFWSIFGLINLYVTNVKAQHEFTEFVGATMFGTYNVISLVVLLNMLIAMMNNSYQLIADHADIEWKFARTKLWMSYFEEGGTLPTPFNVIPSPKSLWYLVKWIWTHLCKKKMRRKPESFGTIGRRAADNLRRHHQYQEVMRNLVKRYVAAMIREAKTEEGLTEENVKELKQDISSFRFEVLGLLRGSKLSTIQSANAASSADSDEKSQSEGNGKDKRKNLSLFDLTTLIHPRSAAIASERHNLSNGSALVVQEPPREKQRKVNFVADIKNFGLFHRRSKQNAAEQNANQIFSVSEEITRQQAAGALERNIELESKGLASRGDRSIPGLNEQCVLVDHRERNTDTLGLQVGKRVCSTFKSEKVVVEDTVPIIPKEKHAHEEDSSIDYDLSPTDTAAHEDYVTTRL

[3] = HEK293T cytotoxicity, dose response, cytotoxicity control for miR-122 modulator project, cell-based, activator set, cherry-pick (AID 720690); format: functional;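 also: HEK293T human cells scored for general mammalian cytotoxicity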
[4] = molecular target: Beta-galactosidase (Escherichia coli, UniProt Q8VNN2); experiment: Dose response counterscreen for EBI2 assay utilizing the enzyme, b-galactosidase.; format: functional
Sequence of Beta-galactosidase (Q8VNN2 whole entry): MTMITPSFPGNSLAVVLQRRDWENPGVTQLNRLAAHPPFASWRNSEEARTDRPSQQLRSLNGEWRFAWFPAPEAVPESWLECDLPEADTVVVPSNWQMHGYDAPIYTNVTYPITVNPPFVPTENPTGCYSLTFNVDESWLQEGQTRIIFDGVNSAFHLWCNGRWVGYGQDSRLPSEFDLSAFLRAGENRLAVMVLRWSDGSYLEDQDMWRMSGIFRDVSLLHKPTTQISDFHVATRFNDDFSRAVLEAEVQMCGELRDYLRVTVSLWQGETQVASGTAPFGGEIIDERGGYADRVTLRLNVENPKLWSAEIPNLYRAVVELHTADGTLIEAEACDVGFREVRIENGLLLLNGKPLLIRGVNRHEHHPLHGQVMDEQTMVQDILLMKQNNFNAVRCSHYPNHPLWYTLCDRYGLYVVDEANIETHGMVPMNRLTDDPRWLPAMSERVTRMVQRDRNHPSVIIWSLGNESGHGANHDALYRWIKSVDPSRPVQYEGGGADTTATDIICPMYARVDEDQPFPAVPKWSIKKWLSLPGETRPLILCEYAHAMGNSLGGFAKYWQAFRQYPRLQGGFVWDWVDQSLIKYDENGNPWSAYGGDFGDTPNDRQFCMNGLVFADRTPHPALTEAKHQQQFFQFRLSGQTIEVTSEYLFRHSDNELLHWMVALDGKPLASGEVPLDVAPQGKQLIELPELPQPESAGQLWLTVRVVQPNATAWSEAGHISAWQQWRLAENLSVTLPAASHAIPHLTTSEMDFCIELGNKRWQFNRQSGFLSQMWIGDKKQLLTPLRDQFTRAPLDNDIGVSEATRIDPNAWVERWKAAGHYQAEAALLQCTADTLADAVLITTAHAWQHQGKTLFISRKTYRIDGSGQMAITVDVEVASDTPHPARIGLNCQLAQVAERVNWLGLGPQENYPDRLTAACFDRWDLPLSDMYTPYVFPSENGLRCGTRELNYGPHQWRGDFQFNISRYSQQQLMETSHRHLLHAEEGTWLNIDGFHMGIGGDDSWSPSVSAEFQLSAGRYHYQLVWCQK

[5] = molecular target: T2, Heat shock factor protein 1 (Mus musculus, UniProt P38532); experiment: HSF1 potentiators in luciferase reporter cells, confirmation, cell-based, NIH3T3, luminescence, dose retest (AID 435004); format: functional;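 also: stress induced by proteasome inhibitor MG132 added 30 min after compound; luciferase reporter driven by HSF1 response element in NIH3T3 cells; actives raise luminescence as potentiators of the MG132 stress response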
T2 sequence (P38532 whole entry): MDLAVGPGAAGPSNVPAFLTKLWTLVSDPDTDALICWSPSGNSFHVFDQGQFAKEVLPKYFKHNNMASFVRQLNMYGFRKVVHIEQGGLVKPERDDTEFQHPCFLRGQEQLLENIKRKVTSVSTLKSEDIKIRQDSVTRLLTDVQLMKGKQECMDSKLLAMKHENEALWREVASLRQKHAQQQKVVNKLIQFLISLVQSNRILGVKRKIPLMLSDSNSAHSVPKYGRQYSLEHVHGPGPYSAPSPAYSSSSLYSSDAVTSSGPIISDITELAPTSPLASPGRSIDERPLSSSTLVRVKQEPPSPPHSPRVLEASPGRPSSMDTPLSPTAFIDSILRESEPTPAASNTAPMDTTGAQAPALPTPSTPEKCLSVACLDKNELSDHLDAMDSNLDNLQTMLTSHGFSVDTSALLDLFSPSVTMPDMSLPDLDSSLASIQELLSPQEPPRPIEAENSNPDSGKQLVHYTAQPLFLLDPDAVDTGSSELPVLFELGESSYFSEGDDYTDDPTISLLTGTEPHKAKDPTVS

[6] = molecular target: Long-chain-fatty-acid--AMP ligase FadD28 (Mycobacterium tuberculosis, UniProt P9WQ59); experiment: Fluorescence polarization aasay to screen for inhibitors that compete for the binding of FadD28 to a bisubstrate Measured in Biochemical System Using Plate Reader - 2147-01_Inhibitor_Dose_CherryPick_Activity.; format: functional, Mycobacterium tuberculosis H37Rv
Sequence of Long-chain-fatty-acid--AMP ligase FadD28 (P9WQ59 whole entry): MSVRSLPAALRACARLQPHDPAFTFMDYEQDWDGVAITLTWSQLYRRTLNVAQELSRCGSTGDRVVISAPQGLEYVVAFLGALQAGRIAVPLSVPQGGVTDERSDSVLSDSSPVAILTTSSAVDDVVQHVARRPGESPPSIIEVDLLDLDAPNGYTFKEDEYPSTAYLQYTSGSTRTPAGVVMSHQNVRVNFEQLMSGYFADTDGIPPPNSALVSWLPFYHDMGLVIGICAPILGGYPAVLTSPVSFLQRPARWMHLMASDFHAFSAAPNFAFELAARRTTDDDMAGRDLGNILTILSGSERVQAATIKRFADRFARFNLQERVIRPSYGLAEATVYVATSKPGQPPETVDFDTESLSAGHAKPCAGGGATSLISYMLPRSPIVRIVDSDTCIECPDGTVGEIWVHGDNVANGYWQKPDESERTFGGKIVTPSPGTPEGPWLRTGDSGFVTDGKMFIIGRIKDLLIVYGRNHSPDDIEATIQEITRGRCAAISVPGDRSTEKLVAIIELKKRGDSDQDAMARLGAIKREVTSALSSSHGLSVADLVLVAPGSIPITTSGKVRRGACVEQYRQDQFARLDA

[7] = MC4R antagonists, dose response, counter-screen for LGR2 antagonist project, cell-based, plate reader, cherry pick (AID 743444); format: functional;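 also: transfected HEK 293 cells stimulated with alpha-MSH peptide; potency of inhibitors of the alpha-MSH evoked signal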
[8] = HEK293 cell cytotoxicity, dose response, cytotoxicity control, plate reader, cherry-picked samples (AID 743446); format: functional, cell-based
[9] = A549 cell cytotoxicity, dose response, cytotoxicity control, plate reader, cherry-pick, antagonist series (AID 743412); format: functional, cell-based
[10] = LGR2 antagonists, dose response, cell-based, HEK293, CRE-luciferase reporter, cherry pick, set 2 (AID 743343); format: functional;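 also: transfected cells were stimulated with diluted bursicon conditioned medium after compound addition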
[11] = molecular target: T2, Heat shock factor protein 1; experiment: inhibition of MG132-induced HSE-luciferase signal, confirmation, cell-based, NIH3T3, luminescence, dose retest (AID 2382); format: functional;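 also: NIH3T3 fibroblasts with HSF1-driven luciferase reporter stressed by proteasome inhibitor MG132; luminescence from HSF1-driven luciferase expression after 8 hours of MG132 stress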
[12] = HepG2 cell cytotoxicity, dose response, cytotoxicity control, plate reader, cherry-pick, antagonist series (AID 743416); format: functional, cell-based
[13] = molecular target: Dual specificity protein phosphatase 3 (Homo sapiens, UniProt P51452); experiment: VHR phosphatase inhibition, dose response, selectivity assay for STEP inhibitor project, biochemical (AID 602374); format: functional; conditions: read-out: IC50_Mean
Sequence of Dual specificity protein phosphatase 3 (P51452 whole entry): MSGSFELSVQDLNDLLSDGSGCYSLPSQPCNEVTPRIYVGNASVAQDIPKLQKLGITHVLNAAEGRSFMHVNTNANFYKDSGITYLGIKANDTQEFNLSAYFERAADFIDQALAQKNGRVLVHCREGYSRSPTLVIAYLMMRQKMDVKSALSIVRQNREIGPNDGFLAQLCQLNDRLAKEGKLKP

[14] = molecular target: Tyrosine-protein phosphatase non-receptor type 5 (Homo sapiens, UniProt P54829); experiment: STEP phosphatase inhibitors, confirmation, biochemical, fluorescence intensity, uHTS hits (AID 602372); format: functional; conditions: read-out: IC50_Mean
Sequence of Tyrosine-protein phosphatase non-receptor type 5 (P54829 whole entry): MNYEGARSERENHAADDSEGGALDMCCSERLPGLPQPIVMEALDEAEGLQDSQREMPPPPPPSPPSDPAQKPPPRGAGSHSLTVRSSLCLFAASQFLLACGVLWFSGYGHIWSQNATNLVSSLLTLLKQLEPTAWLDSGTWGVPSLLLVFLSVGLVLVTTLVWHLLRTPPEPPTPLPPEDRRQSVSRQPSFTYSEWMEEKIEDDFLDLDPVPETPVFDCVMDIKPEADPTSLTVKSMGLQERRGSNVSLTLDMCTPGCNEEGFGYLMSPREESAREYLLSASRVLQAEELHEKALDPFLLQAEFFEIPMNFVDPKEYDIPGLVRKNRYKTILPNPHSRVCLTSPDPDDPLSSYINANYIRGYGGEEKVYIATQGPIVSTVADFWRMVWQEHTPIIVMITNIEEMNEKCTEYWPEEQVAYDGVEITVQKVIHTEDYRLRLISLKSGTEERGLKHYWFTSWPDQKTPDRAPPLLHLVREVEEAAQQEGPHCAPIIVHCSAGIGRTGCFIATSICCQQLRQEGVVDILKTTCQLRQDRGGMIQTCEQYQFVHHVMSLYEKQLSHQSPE

[15] = molecular target: T3, Tyrosine-protein phosphatase non-receptor type 22 (Homo sapiens, UniProt Q9Y2R2); experiment: PTPN22 phosphatase inhibition, dose response, selectivity assay for STEP inhibitor project, biochemical (AID 624241); format: functional
T3 sequence (Q9Y2R2 whole entry): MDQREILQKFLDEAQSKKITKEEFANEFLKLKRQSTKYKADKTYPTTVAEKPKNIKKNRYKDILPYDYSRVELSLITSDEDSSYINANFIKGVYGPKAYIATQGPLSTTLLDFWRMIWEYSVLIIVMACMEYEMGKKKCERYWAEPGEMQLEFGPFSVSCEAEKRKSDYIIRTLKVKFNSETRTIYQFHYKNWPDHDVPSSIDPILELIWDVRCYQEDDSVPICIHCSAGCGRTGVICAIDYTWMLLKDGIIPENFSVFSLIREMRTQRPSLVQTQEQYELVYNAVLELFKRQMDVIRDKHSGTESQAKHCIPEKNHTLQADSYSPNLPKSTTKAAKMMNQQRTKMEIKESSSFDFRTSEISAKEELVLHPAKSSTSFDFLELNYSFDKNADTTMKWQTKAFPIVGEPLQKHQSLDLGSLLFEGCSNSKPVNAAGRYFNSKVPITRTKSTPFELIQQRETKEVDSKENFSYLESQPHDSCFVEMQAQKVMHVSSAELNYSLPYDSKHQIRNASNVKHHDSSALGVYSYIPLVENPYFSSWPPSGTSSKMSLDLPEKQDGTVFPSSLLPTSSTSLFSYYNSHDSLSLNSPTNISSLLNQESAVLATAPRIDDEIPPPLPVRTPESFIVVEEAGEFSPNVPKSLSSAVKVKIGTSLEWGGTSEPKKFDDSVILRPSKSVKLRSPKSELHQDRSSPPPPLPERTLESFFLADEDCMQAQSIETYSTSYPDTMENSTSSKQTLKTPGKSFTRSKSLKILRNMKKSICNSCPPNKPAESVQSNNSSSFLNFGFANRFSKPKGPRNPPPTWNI

[16] = molecular target: Tyrosine-protein phosphatase non-receptor type 11 (Homo sapiens, UniProt Q06124); experiment: SHP2 phosphatase inhibition, dose response, selectivity assay for STEP inhibitor project, biochemical (AID 602367); format: functional; conditions: read-out: IC50_Mean
Sequence of Tyrosine-protein phosphatase non-receptor type 11 (Q06124 whole entry): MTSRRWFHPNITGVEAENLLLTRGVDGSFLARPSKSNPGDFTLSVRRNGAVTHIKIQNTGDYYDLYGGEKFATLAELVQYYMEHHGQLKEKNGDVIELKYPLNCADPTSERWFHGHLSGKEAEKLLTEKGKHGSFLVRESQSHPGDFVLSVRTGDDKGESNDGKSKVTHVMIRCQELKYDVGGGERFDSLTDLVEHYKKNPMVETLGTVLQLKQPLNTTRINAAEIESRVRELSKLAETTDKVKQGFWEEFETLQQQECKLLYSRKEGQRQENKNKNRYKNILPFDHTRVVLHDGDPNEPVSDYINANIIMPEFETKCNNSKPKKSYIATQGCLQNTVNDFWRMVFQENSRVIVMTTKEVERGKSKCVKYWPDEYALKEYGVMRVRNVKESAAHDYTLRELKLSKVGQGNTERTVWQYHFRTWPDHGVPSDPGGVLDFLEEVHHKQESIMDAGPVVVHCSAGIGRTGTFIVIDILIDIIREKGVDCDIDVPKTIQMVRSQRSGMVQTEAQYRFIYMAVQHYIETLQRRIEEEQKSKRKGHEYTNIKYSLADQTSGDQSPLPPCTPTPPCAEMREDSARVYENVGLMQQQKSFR

[17] = human group III sPLA2 inhibitors, dose response, biochemical, QFRET, IC50 (AID 743457);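 also: green fluorescence rise as the enzyme cleaves BODIPY PC-A2 in liposomes; potency for inhibition of the enzyme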
[18] = molecular target: T4, Carboxy-terminal domain RNA polymerase II polypeptide A small phosphatase 1 (Homo sapiens, UniProt Q9GZU7); experiment: inhibitors of CTDSP1, concentration-response testing, biochemical assay, absorbance-based, actives from ultra-high-throughput screening (AID 540297); format: functional
T4 sequence (Q9GZU7 whole entry): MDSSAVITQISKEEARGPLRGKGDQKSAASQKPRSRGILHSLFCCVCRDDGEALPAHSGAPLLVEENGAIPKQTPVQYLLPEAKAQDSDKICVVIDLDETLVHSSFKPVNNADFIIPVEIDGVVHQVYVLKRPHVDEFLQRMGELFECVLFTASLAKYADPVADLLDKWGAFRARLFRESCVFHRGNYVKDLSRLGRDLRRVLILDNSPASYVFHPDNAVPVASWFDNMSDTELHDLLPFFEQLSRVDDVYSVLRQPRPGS

[19] = molecular target: T5, Small ubiquitin-related modifier 1 (Homo sapiens, UniProt P63165); experiment: inhibitors of SUMO1 peptide binding, dose response, biochemical, fluorescence polarization, uHTS hits (AID 624382); format: functional; conditions: read-out: IC50_Mean
T5 sequence (P63165 whole entry): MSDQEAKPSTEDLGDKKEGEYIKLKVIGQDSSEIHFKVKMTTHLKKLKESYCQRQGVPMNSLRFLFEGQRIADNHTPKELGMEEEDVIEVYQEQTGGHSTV

[20] = molecular target: T5, Small ubiquitin-related modifier 1; experiment: inhibitors of SUMO1 partner interactions, dose response, biochemical, FRET (AID 624383); format: functional; conditions: read-out: IC50_Mean
[21] = molecular target: T6, Low molecular weight phosphotyrosine protein phosphatase (Homo sapiens, UniProt P24666); format: functional; conditions: read-out: IC50_Mean
T6 sequence (P24666 whole entry): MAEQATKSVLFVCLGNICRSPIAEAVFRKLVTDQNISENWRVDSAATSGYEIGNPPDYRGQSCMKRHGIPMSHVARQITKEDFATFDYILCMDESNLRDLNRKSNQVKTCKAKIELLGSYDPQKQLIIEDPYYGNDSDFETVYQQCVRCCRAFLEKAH

[22] = molecular target: T6, Low molecular weight phosphotyrosine protein phosphatase; format: functional; conditions: read-out: IC50_Mean; remark: listed apart in the source
[23] = Luminescence Cell-Based Dose Retest to Confirm Inhibitors of Cancer Stem Cells. [Related pubchem assays (depositor defined):AID2717, AID2721]; format: functional; conditions: Homo sapiens
[24] = system: HEK293; experiment: inhibitors of LMP1-driven NF-kB reporter, dose response, cell-based, HEK293, luciferase, cherry-pick (AID 588343); format: functional; conditions: Homo sapiens
[25] = system: INS1; experiment: beta cell apoptosis inhibitors, cytokine rescue, dose response, luminescence, retest (AID 449756); format: functional, cell-based; conditions: Rattus norvegicus;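 also: cell death triggered by IL-1 beta plus TNF-alpha plus IFN-gamma mixture; protective hits raise ATP signal compared with cytokine alone wells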
[26] = P. falciparum Dd2 growth inhibitors, dose response, SYBR Green, cherry-picked samples (AID 1159567); format: functional, cell-based
[27] = molecular target: Paired box protein Pax-8 (Homo sapiens, UniProt Q06710); experiment: inhibitors of PAX8-driven TPO luciferase reporter, dose response, RMG-I cells, cherry-pick (AID 687027); format: functional, cell-based;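 also: luciferase reporter driven by Pax8 target thyroperoxidase promoter measured by SteadyGlo luminescence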
Sequence of Paired box protein Pax-8 (Q06710 whole entry): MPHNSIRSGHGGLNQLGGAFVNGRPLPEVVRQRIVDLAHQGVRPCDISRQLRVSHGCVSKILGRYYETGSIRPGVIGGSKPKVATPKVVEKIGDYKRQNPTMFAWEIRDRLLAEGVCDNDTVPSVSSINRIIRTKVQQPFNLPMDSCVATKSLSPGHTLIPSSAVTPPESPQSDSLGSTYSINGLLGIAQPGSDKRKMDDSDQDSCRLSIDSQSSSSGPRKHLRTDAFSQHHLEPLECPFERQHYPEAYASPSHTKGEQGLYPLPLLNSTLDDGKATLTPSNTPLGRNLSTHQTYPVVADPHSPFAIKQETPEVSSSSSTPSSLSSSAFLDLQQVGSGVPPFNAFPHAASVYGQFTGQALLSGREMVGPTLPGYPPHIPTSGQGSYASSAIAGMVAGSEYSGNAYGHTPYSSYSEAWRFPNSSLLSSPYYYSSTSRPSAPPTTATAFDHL

[28] = HepG2 cell cytotoxicity, dose response, cytotoxicity control, cherry-picked samples (AID 1159577); format: functional, cell-based
[29] = IGROV1 ovarian cancer cell cytotoxicity, dose response, PAX8 inhibitor project, plate reader, dry powder samples (AID 743043); format: functional, cell-based; conditions: IGROV-1
[30] = NIH/3T3 fibroblast cytotoxicity, dose response, cytotoxicity control, cell-based, plate reader, dry powder, set 2 (AID 652280); format: functional; conditions: NIH3T3
[31] = T. cruzi growth inhibition in host cells, dose response, cell-based, plate reader, dry powder, set 2 (AID 652275); format: functional

## FC(F)(F)c1cnc(N2CCCN(C(S)=Nc3ccccc3)CC2)c(Cl)c1
[1]
  AC50: 3.78 µM (active)
[2]
  EC50: 421 nM (active)
[3]
  AC50: 26.9 µM (active)

## CCn1cc(C(=O)NN)c(=O)c2cc(F)c(NC3CCCCC3)cc21
[4]
  IC50: > 80 µM (inactive)
[5]
  EC50: > 260 µM (inactive)

## CCn1c(C)cc(/C=C2\NC(=O)N(CC(=O)Nc3cccc(C)c3)C2=O)c1C
[6]
  AC50: 77.2 µM (active)

## O=C(O)c1ccc2nc(-c3ccccc3)sc2c1
[7]
  AC50: 3.35 µM (active)
[8]
  AC50: > 52 µM (inactive)
[9]
  AC50: > 52 µM (inactive)
[10]
  AC50: 3.7 µM (active)
[11]
  EC50: 5.85 µM (active)
[12]
  AC50: > 52 µM (inactive)

## COc1ccc(Cl)cc1N=C(S)N(CCCN1CCOCC1)Cc1cn(C)c2ccccc12
[13]
  IC50: 754 nM (active)
[14]
  IC50: 13.9 µM (active)
[15]
  IC50: 38.5 µM (inactive)
[16]
  IC50: 2.07 µM (active)

## O=C(NN=C(S)Nc1ccc(F)cc1)[C@H]1C[C@@H]1c1ccccc1
[17]
  IC50: > 122 µM (inactive)

## Cc1cc(C(=O)N/N=C/c2ccc(-c3ccc([N+](=O)[O-])cc3Cl)o2)[nH]n1
[13]
  IC50: 1360 nM (active)
[14]
  IC50: 6.83 µM (active)
[15]
  IC50: > 100 µM (inactive)
[18]
  IC50: 7.05 µM (active)
[19]
  IC50: > 66.6 µM (inactive)
[20]
  IC50: 13.8 µM (active)
[21]
  IC50: > 80 µM (inactive)
[16]
  IC50: 3.42 µM (active)
[22]
  IC50: 19 µM (active)

## Cc1cc(C)nc(SCc2ccc(C(=O)N/N=C/c3cccc(O)c3O)cc2)n1
[17]
  IC50: > 122 µM (inactive)
[23]
  AC50: 3.83 µM (active)
[24]
  AC50: 9.36 µM (active)
[25]
  AC50: 2.22 µM (active)

## C[C@@H]1CN([C@@H](C)CO)C(=O)Cc2cc(NC(=O)Nc3ccccc3)ccc2O[C@H]1CN(C)Cc1ccc(Oc2ccccc2)cc1
[26]
  AC50: 1.05 µM (active)
[27]
  AC50: 9.84 µM (active)
[28]
  AC50: 12.9 µM (active)
[29]
  AC50: 55.6 µM (active)

## CC(C)N1CC[C@@H](CN(C)Cc2ccc(Oc3ccccc3)cc2)Oc2c(NC(=O)c3ccncc3)cccc2C1=O
[30]
  AC50: 23.4 µM (active)
[31]
  AC50: 19.5 nM (active)

## CC(C)N1C[C@@H](CN(C)Cc2ccc(Oc3ccccc3)cc2)Oc2c(NC(=O)c3ccncc3)cccc2C1=O
[30]
  AC50: 2.36 µM (active)
[31]
  AC50: 2.23 nM (active)
